Literature values in patent US10966421B2, “Method and device for collecting and preserving cells for analysis” (priority 2002, dated 2021).

What was measured:
[1] = in vivo
[2] = in vivo; remark: listed apart in the source
[3] = in vivo; remark: listed apart in the source

Row | SMILES | Inhalation Toxicity [1] | Dermal Toxicity [2] [mg/kg] | LD50 [3] [mg/kg]
1 | O=C(NCO)N(CO)C1(CO)C(=O)NC(=O)N1CO (centres unmarked) [Diazolidinyl urea, diazolidinyl urea] | None | 2000 | 2570
2 | C=O [Formaldehyde, formaldehyde, reference compound] | 500 mg/kg | 270 | –
